# Assay results taken from article PMC3917281, “Identification and Biochemical Characterization of Halisulfate 3 and Suvanine as Novel Inhibitors of Hepatitis C Virus NS3 Helicase from a Marine Sponge” (Marine Drugs, 2014).
# How the values were obtained:
# HCV NS3 helicase [1] = target: T1, HCV NS3 helicase (Hepatitis C virus genotype 1a, UniProt P27958); experiment: PET-based fluorescence helicase assay; assay type: biochemical
# T1 construct: The full-length HCV NS3 protein with serine protease and NTPase/helicase activities was expressed and purified as described previously; made in house
# T1 sequence (P27958 1027-1657): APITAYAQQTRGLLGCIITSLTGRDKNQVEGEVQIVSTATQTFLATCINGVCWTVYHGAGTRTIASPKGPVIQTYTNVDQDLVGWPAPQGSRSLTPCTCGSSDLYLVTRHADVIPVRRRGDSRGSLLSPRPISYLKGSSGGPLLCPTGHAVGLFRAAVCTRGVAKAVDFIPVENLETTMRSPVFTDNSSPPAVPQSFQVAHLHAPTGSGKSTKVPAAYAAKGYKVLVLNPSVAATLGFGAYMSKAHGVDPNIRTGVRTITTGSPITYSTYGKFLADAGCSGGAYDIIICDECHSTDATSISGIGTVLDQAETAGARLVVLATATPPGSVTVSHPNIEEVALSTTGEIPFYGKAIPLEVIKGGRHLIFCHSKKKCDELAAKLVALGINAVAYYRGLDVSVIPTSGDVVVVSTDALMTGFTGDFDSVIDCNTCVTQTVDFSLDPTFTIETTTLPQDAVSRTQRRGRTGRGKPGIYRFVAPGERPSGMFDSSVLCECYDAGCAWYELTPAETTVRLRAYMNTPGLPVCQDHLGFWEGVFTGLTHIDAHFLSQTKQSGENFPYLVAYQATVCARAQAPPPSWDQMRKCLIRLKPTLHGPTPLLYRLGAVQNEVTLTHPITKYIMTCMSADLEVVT
# Experimental: The PET-based fluorescence helicase assay was performed as described previously. The dsRNA substrate was prepared by annealing the 5′ BODIPY FL-labeled fluorescence strand (5′-[…]-3′) to the quencher strand (5′-[…]-3′) at a 1:2 molar ratio. The dsRNA substrate contains the 3′-overhang that is necessary for the NS3 helicase to bind RNA prior to duplex unwinding. The capture strand (5′-[…]-3′), which is complementary to the quencher strand, prevents the unwound duplexes from reannealing. None of the capture, quencher, or fluorescence strands are self-complementary. The fluorescence strand was purchased from J-Bio 21 Corporation (Tokyo, Japan), and was labeled with BODIPY FL at the 5′-end via an aminohexylphosphate linker with a six-carbon spacer. […]
# The reaction was started by the addition of HCV NS3 helicase, and was performed at 37 °C for 30 min using a LightCycler 1.5 (Roche Diagnostics, Basel, Switzerland). The fluorescence intensity was recorded every 5 s from 0 to 5 min, and then every 30 s from 5 to 30 min. Helicase activity was calculated as the initial reaction velocity relative to control (in the absence of a marine extract, but presence of DMSO vehicle). The IC50 was calculated using KaleidaGraph (Synergy Software, Reading, PA, USA) by fitting plots of % activity vs. [I] using Equation (1) unless otherwise noted: [drawing 1] […]
# HCV NS3 helicase [2] = target: T1, HCV NS3 helicase; experiment: Gel-based HCV NS3 helicase assay; assay type: biochemical; settings: 0–100 µM inhibitor
# Experimental: A gel-based helicase assay was performed on HCV NS3 helicases using an Alexa Fluor 488-labeled dsRNA strand and capture strand with the same nucleic acid sequences described in Section 3.2. The dsRNA substrate was prepared by annealing the 5′ Alexa Fluor 488-labeled strand (5′-[…]-3′) to the complementary strand (5′-[…]-3′) at a 1:2 molar ratio. The same capture strand described in Section 3.2 was used. All nucleic acid strands were purchased from Japan Bio Services (Saitama, Japan). The reaction mixture for HCV NS3 helicase contained the same components as described in Section 3.2, with increasing concentrations of hal3 or suvanine in a reaction volume of 20 µL. The reaction was started by the addition of HCV NS3 helicase, and performed at 37 °C for 60 min using a GeneAmp PCR System 2700 (Applied Biosystems, Foster City, CA, USA). […] The helicase activity was calculated as the ratio of the signal intensity derived from ssRNA in the sample containing inhibitor to that in the control sample containing DMSO vehicle instead of inhibitor.
# NS3 ATPase activity = target: T2, NS3 ATPase activity (Hepatitis C virus genotype 1a, UniProt P27958); experiment: ATPase assay ([γ-32P] ATP hydrolysis, thin-layer chromatography); assay type: biochemical; settings: poly(U) RNA, 0–100 µM inhibitor
# T2 construct: The full-length HCV NS3 protein with serine protease and NTPase/helicase activities was expressed and purified as described previously; made in house
# T2 sequence (P27958 1027-1657): as above
# Experimental: NS3 ATPase activity was determined directly by monitoring [γ-^32P] ATP hydrolysis by thin-layer chromatography, as described previously. The reaction mixture contained 25 mM MOPS-NaOH (pH 7.0), 1 mM dithiothreitol, 5 mM MgCl2, 5 mM CaCl2, 1 mM [γ-^32P] ATP (Muromachi Yakuhin, Tokyo, Japan), 300 nM NS3, 0.1 µg/µL poly (U) ssRNA (Sigma-Aldrich, St. Louis, MO, USA), and increasing concentrations of hal3 or suvanine in a volume of 10 µL. The reaction was conducted at 37 °C for 10 min, and stopped by the addition of 10 mM EDTA. Two microliters of each reaction mixture was then spotted onto a polyethyleneimine cellulose sheet (Merck, Darmstadt, Germany) and developed in 0.75 M LiCl/1 M formic acid solution for 20 min. The cellulose sheet was dried, and the released [γ-^32P] phosphoric acid was visualized using an Image Reader FLA-9000 and quantified using Multi Gauge software V 3.11 (Fujifilm, Tokyo, Japan). ATPase activity was calculated as the ratio of the signal intensity derived from the released Pi in the sample containing inhibitor to that in the control sample containing DMSO vehicle instead of inhibitor.
# NS3 RNA binding activity = target: T3, NS3 RNA binding activity (Hepatitis C virus genotype 1a, UniProt P27958); experiment: RNA binding assay (gel mobility shift); settings: 32P-labeled ssRNA, 0–100 µM inhibitor
# T3 construct: The full-length HCV NS3 protein with serine protease and NTPase/helicase activities was expressed and purified as described previously; made in house
# T3 sequence (P27958 1027-1657): as above
# Experimental: NS3 RNA binding activity was determined by gel mobility shift assay, as described previously. The ssRNA (5′-[…]-3′) synthesized by Gene Design (Osaka, Japan) was labeled at the 5′-end with [γ-^32P] ATP (Muromachi Yakuhin, Tokyo, Japan) using T4 polynucleotide kinase (Toyobo, Osaka, Japan) at 37 °C for 60 min, and purified using the phenol-chloroform extraction method. The reaction mixture contained 30 mM Tris-HCl (pH 7.5), 100 mM NaCl, 2 mM MgCl2, 1 mM dithiothreitol, 20 U RNasin Plus (Promega), 300 nM NS3, 0.1 nM ^32P-labeled ssRNA, and increasing concentrations of inhibitor in a volume of 20 µL. The reaction was performed at room temperature for 15 min. An equal volume of a dye solution containing 0.025% bromophenol blue and 10% glycerol in 0.5× TBE was then added to each reaction mixture, and samples were loaded onto a 6% native-polyacrylamide gel. The labeled RNA bands were visualized using an Image Reader FLA-9000 and quantified using Multi Gauge software V 3.11 (Fujifilm, Tokyo, Japan). RNA binding activity was calculated as the ratio of the signal intensity derived from the NS3-ssRNA complex in the sample containing hal3 or suvanine to that in the control sample containing DMSO vehicle rather than inhibitor.
# HCV NS3/4A protease = target: T4, HCV NS3/4A protease (Hepatitis C virus genotype 1a, UniProt P27958); experiment: Fluorescence NS3 serine protease assay (FRET); assay type: biochemical
# T4 construct: NS3 protein with a two-fold excess of the NS4A cofactor peptide Pep4AK was prepared in 1× assay buffer; made in house
# T4 sequence (P27958 1027-1657): as above
# Experimental: A fluorescence NS3 serine protease assay, based on fluorescence resonance energy transfer, was conducted using reagents provided in a SensoLyte™ 520 HCV protease assay kit (AnaSpec, San Jose, CA, USA), as described previously. Briefly, NS3 protein with a two-fold excess of the NS4A cofactor peptide Pep4AK was prepared in 1× assay buffer provided with the kit. HCV NS3/4A protease was mixed with increasing concentrations of inhibitor, and incubated at 37 °C for 15 min. The reaction was started by the addition of 5-FAM/QXL 520 substrate in a 20 µL total reaction volume containing 240 nM HCV NS3/4A protease and increasing concentrations of hal3 or suvanine. Reactions were then incubated at 37 °C for 120 min on a LightCycler 1.5 (Roche Diagnostics, Basel, Switzerland), and the fluorescence intensity was recorded every min for 120 min. NS3 serine protease activity was calculated as the initial reaction velocity in the sample containing inhibitor relative to the control sample containing DMSO vehicle rather than inhibitor.
# DENV NS3 helicase = target: T5, DENV NS3 helicase (Dengue virus type 2, UniProt P29990); experiment: Gel-based DENV NS3 helicase assay; assay type: biochemical; settings: in the presence of 100 µM of each inhibitor
# T5 construct: made in house
# T5 sequence (P29990 1476-2093): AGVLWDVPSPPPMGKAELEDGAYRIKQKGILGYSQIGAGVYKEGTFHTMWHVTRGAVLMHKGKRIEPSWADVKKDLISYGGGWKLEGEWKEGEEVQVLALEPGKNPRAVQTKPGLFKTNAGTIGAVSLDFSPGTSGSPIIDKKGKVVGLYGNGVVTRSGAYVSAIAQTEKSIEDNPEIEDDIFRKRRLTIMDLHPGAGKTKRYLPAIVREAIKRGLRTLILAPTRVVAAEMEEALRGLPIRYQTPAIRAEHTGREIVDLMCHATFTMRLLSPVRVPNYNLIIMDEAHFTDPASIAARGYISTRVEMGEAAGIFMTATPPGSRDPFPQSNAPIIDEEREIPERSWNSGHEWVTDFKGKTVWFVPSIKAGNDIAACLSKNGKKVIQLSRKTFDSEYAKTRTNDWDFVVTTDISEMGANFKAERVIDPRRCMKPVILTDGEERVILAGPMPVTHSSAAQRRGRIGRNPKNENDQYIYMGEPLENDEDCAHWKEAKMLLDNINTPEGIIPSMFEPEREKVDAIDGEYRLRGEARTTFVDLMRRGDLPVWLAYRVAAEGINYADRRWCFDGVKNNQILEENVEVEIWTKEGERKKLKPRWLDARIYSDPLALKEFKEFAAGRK
# Experimental: A gel-based helicase assay was performed using DENV NS3 helicases, and the Alexa Fluor 488-labeled dsRNA strand and capture strand with the same nucleic acid sequences described in the Section 3.3. DENV NS3 helicase requires a single stranded 3′ overhang to unwind dsRNA substrates in the 3′ to 5′ direction; therefore, the substrate specificities of the DENV and HCV NS3 helicases are the same. The reaction mixture contained 50 mM Tris-HCl (pH 7.4), 1 mM DTT, 0.5% Tween 20, 0.25 µg/mL BSA, 2 mM MgCl2, 4 U RNasin (Promega), 5 mM ATP, 50 nM dsRNA substrate, 300 nM capture strand, an inhibitor, and 240 nM DENV NS3 in a total volume of 20 µL. DENV NS3 helicase was prepared as described previously. The reaction was started by the addition of DENV NS3 helicase, and was performed at 37 °C for 60 min using a GeneAmp PCR System 2700 (Applied Biosystems, Foster City, CA, USA). […] The helicase activity was calculated as the ratio of the signal intensity from ssRNA in the sample containing inhibitor to that in the control sample containing DMSO vehicle instead of inhibitor.
# serine protease = settings: cited from earlier work
# farnesoid-X-receptor = system: farnesoid-X-receptor; design: method as in PMID 23656455; settings: mammalian bile acid sensor; cited from earlier work
# heat shock protein 60 = settings: cited from earlier work
SMILES,IC50 (HCV NS3 helicase [1]),helicase-catalyzed RNA unwinding (HCV NS3 helicase [2]),IC50 (NS3 ATPase activity),IC50 (NS3 RNA binding activity),IC50 (HCV NS3/4A protease),DENV NS3 helicase activity (DENV NS3 helicase),serine protease inhibition (serine protease),farnesoid-X-receptor antagonism (farnesoid-X-receptor),interference with heat shock protein 60 (heat shock protein 60)
"C[C@@H]1CCC2=C(CCCC2(C)C)[C@@]1(C)CC[C@H](CCCc1ccoc1)COS(=O)(=O)[O-].[Na+] [hal3, halisulfate 3]",4 µM,inhibited helicase-catalyzed RNA unwinding in a dose-dependent manner,8 µM,8 µM,14 µM,did not abolish,,,
CC1(C)CCC[C@]2(C)[C@H]3CC/C(=C\OS(=O)(=O)[O-])[C@H](CCc4ccoc4)[C@@]3(C)CC[C@@H]12.[Na+] [suvanine],3 µM,inhibited helicase-catalyzed RNA unwinding in a dose-dependent manner,7 µM,3 µM,34 µM,did not abolish,serine protease inhibitor,antagonist,interferes with
